In patent US11542240B2, “STK19 inhibitors for treatment of cancer” (TRUSTEES OF BOSTON UNIVERSITY, priority 2018, dated 2023):
Read-outs that look alike come from different tables or passages of the source.

Columns and labels:
Assay in all cases: biochemical
Type in all cases: binding
[1] = target: panel of 468 diverse kinases (Homo sapiens, UniProt O75582); details: 1000 nM, read-out: Percent Control
[2] = target: panel of 468 diverse kinases (Homo sapiens, UniProt P00519, F317I); details: 1000 nM, read-out: Percent Control
[3] = target: panel of 468 diverse kinases (Homo sapiens, UniProt P07948); details: LYN; 1000 nM; read-out: Percent Control
[4] = target: panel of 468 diverse kinases (Homo sapiens, UniProt P08631); details: HCK; 1000 nM; read-out: Percent Control
[5] = target: panel of 468 diverse kinases (Homo sapiens, UniProt P0C1S8); details: WEE2; 1000 nM; read-out: Percent Control
[6] = target: panel of 468 diverse kinases (Homo sapiens, UniProt P15056, V600E); details: BRAF(V600E); 1000 nM; read-out: Percent Control
[7] = target: panel of 468 diverse kinases (Homo sapiens, UniProt P25098); details: GRK2; 1000 nM; read-out: Percent Control
[8] = target: panel of 468 diverse kinases (Homo sapiens, UniProt P29322); details: EPHA8; 1000 nM; read-out: Percent Control
[9] = target: panel of 468 diverse kinases (Homo sapiens, UniProt P48729); details: CSNKIV1; 1000 nM; read-out: Percent Control
[10] = target: panel of 468 diverse kinases (Homo sapiens, UniProt P48730); details: CSNK1D; 1000 nM; read-out: Percent Control
[11] = target: panel of 468 diverse kinases (Homo sapiens, UniProt P51812); details: 1000 nM, read-out: Percent Control
[12] = target: panel of 468 diverse kinases (Homo sapiens, UniProt P52333); details: JAK3(JH1domain-catalytic); 1000 nM; read-out: Percent Control
[13] = target: panel of 468 diverse kinases (Homo sapiens, UniProt Q04759); details: PRKCQ; 1000 nM; read-out: Percent Control
[14] = target: panel of 468 diverse kinases (Homo sapiens, UniProt Q09013); details: DMPK; 1000 nM; read-out: Percent Control
[15] = target: panel of 468 diverse kinases (Homo sapiens, UniProt Q13163); details: MEK5; 1000 nM; read-out: Percent Control
[16] = target: panel of 468 diverse kinases (Homo sapiens, UniProt Q6P3R8); details: NEK5; 1000 nM; read-out: Percent Control
[17] = target: panel of 468 diverse kinases (Homo sapiens, UniProt Q6PHR2); details: ULK3; 1000 nM; read-out: Percent Control
[18] = target: panel of 468 diverse kinases (Homo sapiens, UniProt Q8IYT8); details: ULK2; 1000 nM; read-out: Percent Control
[19] = target: panel of 468 diverse kinases (Homo sapiens, UniProt Q8N5S9); details: CAMKK1; 1000 nM; read-out: Percent Control
[20] = target: panel of 468 diverse kinases (Homo sapiens, UniProt Q8TD19); details: NEK9; 1000 nM; read-out: Percent Control
[21] = target: panel of 468 diverse kinases (Homo sapiens, UniProt Q92772); details: CDKL2; 1000 nM; read-out: Percent Control
[22] = target: panel of 468 diverse kinases (Homo sapiens, UniProt Q99755); details: PIP5KIV; 1000 nM; read-out: Percent Control
[23] = target: panel of 468 diverse kinases (Homo sapiens, UniProt Q9H2G2); details: SLK; 1000 nM; read-out: Percent Control
[24] = target: panel of 468 diverse kinases (Homo sapiens, UniProt Q9NYL2); details: ZAK; 1000 nM; read-out: Percent Control
[25] = target: panel of 468 diverse kinases (Homo sapiens, UniProt Q9P286); details: PAK7; 1000 nM; read-out: Percent Control
[26] = target: panel of 468 diverse kinases (Homo sapiens, UniProt Q9UIK4); details: DAPK2; 1000 nM; read-out: Percent Control
[27] = target: panel of 468 diverse kinases (Homo sapiens, UniProt Q9UM73); details: ALK; 1000 nM; read-out: Percent Control
[28] = target: panel of 468 diverse kinases (Homo sapiens, UniProt Q9Y243); details: AKT3; 1000 nM; read-out: Percent Control
[29] = target: panel of 468 diverse kinases (Homo sapiens, UniProt Q9Y2H9); details: MAST1; 1000 nM; read-out: Percent Control
[30] = target: panel of 468 diverse kinases (Homo sapiens, UniProt Q9Y5S2); details: MRCKB; 1000 nM; read-out: Percent Control
[31] = target: panel of 468 diverse kinases (Plasmodium falciparum, UniProt P61075); details: read-out: Percent Control

Chain of panel of 468 diverse kinases (Homo sapiens, UniProt Q9Y243) (Q9Y243 2-479 limits assumed): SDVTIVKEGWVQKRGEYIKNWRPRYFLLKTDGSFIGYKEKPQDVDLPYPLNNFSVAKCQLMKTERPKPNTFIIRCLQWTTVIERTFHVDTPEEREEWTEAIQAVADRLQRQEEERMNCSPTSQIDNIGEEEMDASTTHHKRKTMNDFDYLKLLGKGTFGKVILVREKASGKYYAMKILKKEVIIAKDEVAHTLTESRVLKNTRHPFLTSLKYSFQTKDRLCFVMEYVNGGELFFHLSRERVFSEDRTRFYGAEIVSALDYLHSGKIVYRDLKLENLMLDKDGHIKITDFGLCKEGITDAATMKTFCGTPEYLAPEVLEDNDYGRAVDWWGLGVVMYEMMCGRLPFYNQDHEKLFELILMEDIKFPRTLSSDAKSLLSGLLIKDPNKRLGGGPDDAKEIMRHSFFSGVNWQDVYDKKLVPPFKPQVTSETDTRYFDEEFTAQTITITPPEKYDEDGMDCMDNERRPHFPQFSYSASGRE
Chain of panel of 468 diverse kinases (Homo sapiens, UniProt P29322) (P29322 28-1005 limits assumed): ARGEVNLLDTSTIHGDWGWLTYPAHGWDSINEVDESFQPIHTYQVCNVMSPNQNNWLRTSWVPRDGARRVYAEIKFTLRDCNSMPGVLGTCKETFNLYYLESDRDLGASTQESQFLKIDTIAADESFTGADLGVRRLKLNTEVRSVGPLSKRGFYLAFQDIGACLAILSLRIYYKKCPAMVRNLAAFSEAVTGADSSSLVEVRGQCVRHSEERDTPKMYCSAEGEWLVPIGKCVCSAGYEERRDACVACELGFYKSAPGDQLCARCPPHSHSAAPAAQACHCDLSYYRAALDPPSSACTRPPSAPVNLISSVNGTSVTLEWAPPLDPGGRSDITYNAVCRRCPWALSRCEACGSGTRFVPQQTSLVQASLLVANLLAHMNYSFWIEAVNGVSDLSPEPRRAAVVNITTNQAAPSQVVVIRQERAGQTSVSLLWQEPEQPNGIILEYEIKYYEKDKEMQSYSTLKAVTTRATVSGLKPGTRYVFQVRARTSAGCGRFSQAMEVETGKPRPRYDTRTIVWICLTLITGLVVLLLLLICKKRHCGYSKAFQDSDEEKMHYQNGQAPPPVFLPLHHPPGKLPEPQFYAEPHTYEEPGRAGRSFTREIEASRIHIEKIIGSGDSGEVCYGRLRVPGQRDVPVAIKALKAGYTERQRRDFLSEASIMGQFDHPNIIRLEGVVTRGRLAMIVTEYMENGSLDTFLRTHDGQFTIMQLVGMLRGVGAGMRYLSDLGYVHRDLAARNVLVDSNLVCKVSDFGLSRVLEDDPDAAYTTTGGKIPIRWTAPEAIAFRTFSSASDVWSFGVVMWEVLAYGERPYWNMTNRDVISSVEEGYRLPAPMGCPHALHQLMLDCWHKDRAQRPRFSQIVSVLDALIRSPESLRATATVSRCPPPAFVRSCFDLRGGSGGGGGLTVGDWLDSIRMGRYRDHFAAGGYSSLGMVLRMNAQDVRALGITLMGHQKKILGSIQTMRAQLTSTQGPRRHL
Chain of panel of 468 diverse kinases (Homo sapiens, UniProt Q9UM73) (Q9UM73 19-1620 limits assumed): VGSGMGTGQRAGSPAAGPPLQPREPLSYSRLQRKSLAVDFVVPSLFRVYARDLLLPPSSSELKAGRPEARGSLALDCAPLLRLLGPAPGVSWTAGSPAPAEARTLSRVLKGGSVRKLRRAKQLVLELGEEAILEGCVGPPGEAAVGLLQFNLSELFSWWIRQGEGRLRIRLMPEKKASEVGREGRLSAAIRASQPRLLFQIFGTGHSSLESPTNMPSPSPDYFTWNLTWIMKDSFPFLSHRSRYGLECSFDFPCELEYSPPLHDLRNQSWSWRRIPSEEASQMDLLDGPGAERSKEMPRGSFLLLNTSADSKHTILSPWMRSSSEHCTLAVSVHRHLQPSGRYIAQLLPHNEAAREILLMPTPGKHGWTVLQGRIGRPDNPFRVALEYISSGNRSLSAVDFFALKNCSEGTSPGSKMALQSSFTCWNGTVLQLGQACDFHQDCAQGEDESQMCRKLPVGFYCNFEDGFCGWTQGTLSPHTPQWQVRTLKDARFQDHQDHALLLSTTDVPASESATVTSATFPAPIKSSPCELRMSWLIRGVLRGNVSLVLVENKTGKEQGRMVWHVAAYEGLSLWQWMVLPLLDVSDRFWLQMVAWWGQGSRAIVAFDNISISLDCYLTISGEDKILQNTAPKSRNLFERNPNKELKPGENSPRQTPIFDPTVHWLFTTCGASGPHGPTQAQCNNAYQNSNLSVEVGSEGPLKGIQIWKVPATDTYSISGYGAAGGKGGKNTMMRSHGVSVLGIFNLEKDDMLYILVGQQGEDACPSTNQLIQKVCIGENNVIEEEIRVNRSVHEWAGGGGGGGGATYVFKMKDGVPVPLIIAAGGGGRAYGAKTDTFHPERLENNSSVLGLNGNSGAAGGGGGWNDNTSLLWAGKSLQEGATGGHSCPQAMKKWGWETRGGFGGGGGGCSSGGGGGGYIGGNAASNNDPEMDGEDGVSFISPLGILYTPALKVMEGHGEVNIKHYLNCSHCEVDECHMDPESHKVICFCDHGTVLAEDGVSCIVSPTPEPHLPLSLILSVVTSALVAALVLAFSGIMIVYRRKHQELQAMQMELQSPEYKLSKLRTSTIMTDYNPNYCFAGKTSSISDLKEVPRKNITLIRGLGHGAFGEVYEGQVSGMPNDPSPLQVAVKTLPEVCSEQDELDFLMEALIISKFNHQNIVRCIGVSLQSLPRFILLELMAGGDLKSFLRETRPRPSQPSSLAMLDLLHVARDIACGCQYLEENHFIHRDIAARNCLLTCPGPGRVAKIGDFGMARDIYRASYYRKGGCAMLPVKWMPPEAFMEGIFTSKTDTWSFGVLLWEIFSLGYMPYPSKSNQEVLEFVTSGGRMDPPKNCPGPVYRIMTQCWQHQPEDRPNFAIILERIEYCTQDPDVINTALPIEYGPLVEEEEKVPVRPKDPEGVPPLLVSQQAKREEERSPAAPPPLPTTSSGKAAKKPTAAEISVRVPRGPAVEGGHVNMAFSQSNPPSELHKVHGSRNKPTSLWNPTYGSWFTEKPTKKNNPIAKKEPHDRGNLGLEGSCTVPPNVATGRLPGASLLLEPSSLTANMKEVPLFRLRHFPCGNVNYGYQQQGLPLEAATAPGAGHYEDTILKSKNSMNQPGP
Chain of panel of 468 diverse kinases (Homo sapiens, UniProt P48729) (P48729 2-337 limits assumed): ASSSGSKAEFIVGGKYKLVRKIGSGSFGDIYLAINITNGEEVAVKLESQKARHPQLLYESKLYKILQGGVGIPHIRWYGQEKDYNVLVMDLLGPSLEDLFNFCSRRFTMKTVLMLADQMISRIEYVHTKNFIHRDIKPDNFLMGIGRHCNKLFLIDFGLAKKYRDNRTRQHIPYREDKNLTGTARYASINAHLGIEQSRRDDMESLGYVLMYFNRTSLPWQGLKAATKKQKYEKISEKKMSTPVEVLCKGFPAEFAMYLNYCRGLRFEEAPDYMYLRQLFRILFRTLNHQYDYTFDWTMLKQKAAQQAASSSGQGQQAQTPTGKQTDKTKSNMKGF
Chain of panel of 468 diverse kinases (Homo sapiens, UniProt P08631) (P08631 2-526 limits assumed): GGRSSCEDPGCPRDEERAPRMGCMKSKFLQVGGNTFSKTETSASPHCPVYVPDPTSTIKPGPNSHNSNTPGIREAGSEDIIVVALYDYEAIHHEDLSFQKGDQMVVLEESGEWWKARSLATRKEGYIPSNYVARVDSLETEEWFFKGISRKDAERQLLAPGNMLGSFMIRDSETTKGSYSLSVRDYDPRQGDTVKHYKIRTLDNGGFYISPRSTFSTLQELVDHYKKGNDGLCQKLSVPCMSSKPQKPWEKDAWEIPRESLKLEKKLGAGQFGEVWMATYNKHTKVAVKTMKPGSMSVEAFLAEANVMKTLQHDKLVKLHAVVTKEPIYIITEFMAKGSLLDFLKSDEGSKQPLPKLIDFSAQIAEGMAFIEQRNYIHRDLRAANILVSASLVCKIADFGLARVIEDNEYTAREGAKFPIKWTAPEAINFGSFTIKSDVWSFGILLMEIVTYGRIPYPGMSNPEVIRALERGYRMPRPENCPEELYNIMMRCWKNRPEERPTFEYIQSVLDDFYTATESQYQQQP
Chain of panel of 468 diverse kinases (Homo sapiens, UniProt Q8TD19) (Q8TD19 2-979 limits assumed): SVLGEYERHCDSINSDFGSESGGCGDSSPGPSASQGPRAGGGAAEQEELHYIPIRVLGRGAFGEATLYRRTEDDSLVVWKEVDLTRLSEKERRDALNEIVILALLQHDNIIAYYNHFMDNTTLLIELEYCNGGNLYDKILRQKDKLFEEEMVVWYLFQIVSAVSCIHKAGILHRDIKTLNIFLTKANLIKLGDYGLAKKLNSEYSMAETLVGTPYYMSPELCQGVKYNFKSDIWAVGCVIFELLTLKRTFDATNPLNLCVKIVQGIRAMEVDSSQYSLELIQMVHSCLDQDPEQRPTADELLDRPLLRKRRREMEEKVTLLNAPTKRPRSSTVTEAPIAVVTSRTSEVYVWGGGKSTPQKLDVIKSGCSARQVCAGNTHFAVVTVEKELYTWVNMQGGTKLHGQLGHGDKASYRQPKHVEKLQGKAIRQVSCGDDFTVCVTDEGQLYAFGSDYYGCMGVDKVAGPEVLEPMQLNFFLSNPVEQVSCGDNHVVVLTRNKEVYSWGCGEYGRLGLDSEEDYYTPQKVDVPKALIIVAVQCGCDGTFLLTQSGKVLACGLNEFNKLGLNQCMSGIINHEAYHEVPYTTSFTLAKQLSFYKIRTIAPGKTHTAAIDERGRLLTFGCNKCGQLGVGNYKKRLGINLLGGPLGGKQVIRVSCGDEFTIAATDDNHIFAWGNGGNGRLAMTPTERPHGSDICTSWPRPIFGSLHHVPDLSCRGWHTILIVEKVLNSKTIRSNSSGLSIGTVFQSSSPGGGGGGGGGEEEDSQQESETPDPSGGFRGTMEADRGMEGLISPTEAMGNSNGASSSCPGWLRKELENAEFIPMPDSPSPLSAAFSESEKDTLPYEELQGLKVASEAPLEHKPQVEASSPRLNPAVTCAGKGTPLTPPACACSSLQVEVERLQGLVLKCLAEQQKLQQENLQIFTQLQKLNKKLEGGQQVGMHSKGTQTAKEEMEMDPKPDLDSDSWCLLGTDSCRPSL

COc1cc2nc(NC3CC3)nc(NC3CCN(C(C)C)CC3)c2cc1OC [Formula IV]
remaining activity at 1 µM ([1]; RPS6KA5(Kin.Dom.1-N-terminal)): 75% | remaining activity at 1 µM ([1]; RPS6KA5(Kin.Dom.2-C-terminal)): 100% | remaining activity at 1 µM ([2]; ABL1(F317I)-nonphosphorylated): 85% | remaining activity at 1 µM ([2]; ABL1(F317I)-pho sphorylated): 90% | remaining activity at 1 µM [3]: 77% | remaining activity at 1 µM [4]: 95% | remaining activity at 1 µM [5]: 96% | remaining activity at 1 µM [6]: 89% | remaining activity at 1 µM [7]: 83% | remaining activity at 1 µM [8]: 93% | remaining activity at 1 µM [9]: 74% | remaining activity at 1 µM [10]: 98% | remaining activity at 1 µM ([11]; RSK2(Kin.Dom.1-N-terminal)): 67% | remaining activity at 1 µM ([11]; RSK2(Kin.Dom.2-C-terminal)): 53% | remaining activity at 1 µM [12]: 70% | remaining activity at 1 µM [13]: 86% | remaining activity at 1 µM [14]: 99% | remaining activity at 1 µM [15]: 60% | remaining activity at 1 µM [16]: 90% | remaining activity at 1 µM [17]: 71% | remaining activity at 1 µM [18]: 59% | remaining activity at 1 µM [19]: 97% | remaining activity at 1 µM [20]: 83% | remaining activity at 1 µM [21]: 100% | remaining activity at 1 µM [22]: 96% | remaining activity at 1 µM [23]: 100% | remaining activity at 1 µM [24]: 100% | remaining activity at 1 µM [25]: 92% | remaining activity at 1 µM [26]: 93% | remaining activity at 1 µM [27]: 61% | remaining activity at 1 µM [28]: 91% | remaining activity at 1 µM [29]: 72% | remaining activity at 1 µM [30]: 92% | remaining activity at 1 µM [31]: 48%
